Assays:
DAPK1 promoter = test: Bisulfite sequencing of the BS1 region of Decitabine-treated Raji cells; assay type: cell-based; conditions: Decitabine 0.5 μM, untreated 55%
Method: FIG. 2F—Bisulfite treatment for untreated and 6 and 12 days 5-aza-2′-deoxycytidine treated (0.5 μM) Raji cells. Bisulfite treated DNA was amplified for the BS1 region (c.1-1509 to c.1-1262) comprising 30 CpGs and cloned. Sequencing was done for 7-10 clones for each sample. Each row represents a clone. The open circles indicate unmethylated CpG, and closed circles indicate methylated CpG. The overall methylation frequency is given in (%) on the right.
One microgram of genomic DNA was treated with sodium […] according to published protocols (Herman et al., 1996). Regions BS1 and BS2 were amplified (primers are available upon request). The PCR product was purified using the Qiagen Gel Extraction kit (Qiagen, Chatsworth, Calif.) according to the manufacturer's protocol and subcloned using the TOPO TA-Cloning kit (Invitrogen) followed by sequencing of 8-10 clones for each sample using ABI big dye technology.

DAPK1 = test: Decitabine treatment of Raji cells, RT-PCR for DAPK1; assay type: cell-based; conditions: for 3, 6, 9, and 12 days
Text: Next we treated Raji cells with 0.51.LM Decitabine for 3, 6, 9, and 12 days.
Blood was obtained from patients with B-cell CLL through the CLL Research Consortium (CRC), from the Ohio State University and Uppsala University tissue banks. CLL patients from OSU and CRC consortium and healthy volunteers provided written informed consent using Institutional Review Board-approved protocols. Written consent for Uppsala samples was provided according to the declaration of Helsinki. Seven CD 19+ selected CLL samples were obtained by positive selection using magnetic beads conjugated to anti-CD19 (MACS, Miltenyi Biotec, Auburn Calif.). The resulting cells are at least 95% CD19 positive. All patients had immunophenotypically defined CLL as outlined by the modified 96 NCI criteria (Cheson et al., 1996) and for Uppsala samples, according to WHO classification. The CLL cell line WaC3CD5, described previously (Wendel-Hansen et al., 1994), Jurkat, Raji and lymphoblastoid cell lines were incubated (37° C. and 5% C02) in RPMI 1640 supplemented with 10% FBS (HyClone Laboratories, Logan, Utah), 2 mM L-glutamine, 100 U/ml penicillin, and 100 μg/ml streptomycin (all from Invitrogen, Carlsbad Calif.). […]
Semi-quantitative RT-PCR was performed as described previously (Liu et al., 2006). […] The expression data was analyzed by comparative Ct method. […]

SMILES: Nc1ncn([C@H]2C[C@H](O)[C@@H](CO)O2)c(=O)n1 [Decitabine, 5-aza-2′-deoxycytidine]
- DNA methylation of CpG dinucleotides, BS1 region (DAPK1 promoter; day 6 (70/240)): 29%
- DNA methylation of CpG dinucleotides, BS1 region (DAPK1 promoter; day 12 (68/270)): 25%
- DAPK1 expression (RT-PCR) (DAPK1): gradual up-regulation of DAPK1 expression
